Measured values as given in patent publication US7666897B2, “Analogs of indole-3-carbinol metabolites as chemotherapeutic and chemopreventive agents” (SRI International, priority 2002, dated 2010).
Where two headings read alike, the source gives them in different places.

Assays:
MCF-7 (ER+) = assay: Growth inhibition assay (tetrazolium blue), MCF-7 (ER+) breast cancer cells; type: cell-based; details: for inhibition at 1 µM: MCF7; for IC50: 7 days incubation, tetrazolium blue
Method: (§1) Growth inhibition assays were conducted using DIM, LT, and some of the novel compounds of the invention on several breast cancer cell lines. The cell lines studied were MCF-7 (ER^+), MDA-MB-231 (ER^−), and a tamoxifen-resistant strain of MCF-7 (ER^+). The growth assays were conducted according to the method of Tiwari et al. (Tiwari, R. K., J Natl Cancer Inst 86:126-131, 1994). For growth Inhibition Assay, cells were grown in multi-well culture plates. Experiments were performed in quadruplicate. MCF-7 (ER^+) cells were grown in special medium containing 5% animal serum that had been treated to remove endogenous estrogens. After the plates were incubated at 37° C. for 24 hours, to each well was added test compound at various concentrations, with or without the estrogen 17β-estradiol (E2). The cells were then incubated for 7 days, with medium and test solutions replaced every other day. On Day 8, after the medium was removed and replaced with fresh medium without test solutions, the tetrazolium blue test was performed to determine the percentage of viable cells (viable cells convert the colorless tetrazolium to formazan, which is blue). At 4 hours after tetrazolium blue was added, the reaction was stopped and the formazan concentration was measured by detection of light absorbance at 575 nm in an enzyme linked immunosorbent assay (ELISA) plate reader. The percent growth inhibition was determined by dividing the ELISA results for samples containing test compounds by the results for control samples. […] (ER^−) cells were maintained and tested under the same conditions as described above, except that no estrogen was added.

MDA-MB-231 (ER−) = assay: Growth inhibition assay (tetrazolium blue), MDA-MB-231 (ER−) breast cancer cells; type: cell-based, human; details: for IC50: no estrogen added
Method: as §1

[1] = system: Tamoxifen-resistant MCF-7; assay: Growth inhibition assay (tetrazolium blue), tamoxifen-resistant MCF-7 cells; type: cell-based
Method: as §1

[2] = system: Ishikawa cells (endometrial carcinoma cells); assay: Ishikawa assay (alkaline phosphatase induction), estrogenic and antiestrogenic activity; type: cell-based, human; details: AlkP induction, 72 hours; for Ishikawa Assay Anti-Estrogenic Activity at 10 μM: unit assumed
Method: Estrogenic and antiestrogenic activities were determined using the Ishikawa assay (Littlefield, B. A., Endocrinology 127: 2757-2762, 1990). The activities were measured at 10 μM concentrations of the test compounds. Human Ishikawa cells (endometrial carcinoma cells) are very sensitive to estrogens, and compounds with estrogenic activity induce alkaline phosphatase (AlkP) enzyme activity in these cells when administered at levels as low as 10^−12 M. Ishikawa cells were grown in growth medium supplemented with glutamine, sodium pyruvate, and 10% animal serum. At 24 hours before the experiment, the medium was replaced with medium free of phenol red and containing 5% animal serum that had been treated to remove endogenous estrogens. On Day 1, the cells were harvested and plated in fresh phenol red-free medium, and test solutions were added with or without the estrogen 17β-estradiol. After the treated cells were incubated for 72 hours, the AlkP assay was used to determine the estrogenic and antiestrogenic activity of the test compounds. Like the tetrazolium blue assay described above, this assay involves calorimetric detection using an ELISA plate reader, but here the indicator dye is yellow.

NIH-OVCAR-3 = assay: Growth inhibition assay (MTT), NIH-OVCAR-3 ovarian cancer cells; type: cell-based; details: Homo sapiens, OVCAR-3, 168 h; Day 7, MTT
Method: (§2) Assays were conducted on compound 74 (SR13668) to determine its growth inhibitory effect on two ovarian cancer cell lines, NIH-OVCAR-3 and SKOV-3. OVCAR-3 cells are routinely maintained in RPMI-1640 medium supplemented with 2 mM glutamine (GLN) and 10% fetal calf serum (FCS), and SKOV-3 cells in McCoy's 5A medium supplemented with 2 mM GLN and 10% FCS. Both cell lines are fed with fresh medium every other day and passaged every 6-7 days. To conduct the growth inhibition assay, cells from either cell line are seeded in 96-well plates at 2000 cells/well in 200 μL of medium. After cells are allowed to attach for 24 h, test compounds dissolved in dimethyl sulfoxide (DMSO) and further diluted with medium are added to each well in 10-μL aliquots. The final DMSO concentration is kept at 0.05%. Control wells receive vehicle only. Media and test solutions are replaced every other day. On Day 7, viable cells are measured with the MTT (tetrazolium blue) assay, using an MTT kit.

SKOV-3 = assay: Growth inhibition assay (MTT), SKOV-3 ovarian cancer cells; type: cell-based; details: Homo sapiens, SK-OV-3, 168 h; Day 7, MTT
Method: as §2

[3] = system: MDA-MB-231 human carcinoma cells; assay: Boyden Chamber Invasion Assay; type: cell-based; details: 5 μM, 16 h end-point
Method: MDA-MB-231 human carcinoma cells was used for this Boyden Chamber Invasion Assay (Meng et al. (2000) J. Mol. Med. 78, 155-165; Meng et al. (2000) Breast Cancer Res. Treat. 63, 147-152). Briefly, to each well of a 24-well Biocoat invasion chamber plate, 0.6 mL of appropriate medium containing 10% FCSH 6 μg/ml Fibronectin is added, followed by gentle placement of a CCI in each well. To each CCI is added freshly harvested cells suspended in 200 μL of medium containing either the test compound or vehicle alone. The preparations are incubated at 37° C. for 16 h, and then the CCI is removed from each well, fixed for 10 min with 1 ml of 3.7% paraformaldehyde in PBS, and stained for 10 min in 1 mL of Wright-Giemsa stain solution. The stained CCI is placed on a glass microscope slide and the upper surface cells are carefully removed by scraping with a cotton swab. The cells on the lower surface are counted in a bright field microscope. The inhibitory effect of a test compound is calculated by dividing the number of cells in a treated preparation by that of the vehicle control and expressed as a percentage.

[4] = system: MDA-MB-231 human carcinoma cells; assay: Parallel cell growth inhibition assay to the invasion study; type: cell-based; details: 16 h end-point
[5] = system: MCF-7 breast cancer xenografts; assay: ER+ MCF-7 breast cancer xenografts in nude mice; type: in vivo, female Balb/c nude mice; details: oral gavage daily, MCF-7 xenograft
Method: To study the in vivo activity of novel compound 74 against estrogen-dependent breast cancer, the compound was administered to nude mice that had been implanted with […] MCF-7 breast cancer cells. To start the experiment, female Balb/c nude mice were implanted subcutaneously (s.c.) with estrogen pellets two days prior to inoculation of cancer cells, for stimulation of cell growth. MCF-7 cells were then implanted s.c. in the flanks, using an inoculum of 5×10^6 cells in a medium-Matrigel mixture (1:1, v/v). When the mean tumor volume reached approximately 100 mm^3, the test compound in 0.5% hydroxypropylcellulose in sterile saline solution (or vehicle alone for controls) was administered orally by gavage daily. There were 7 mice in the experimental and control groups. Mice were examined daily for tumor growth, and tumors and body weight were measured twice weekly. The tumor volume is 4/3πr1^2r2, where r1 and r2 are the short radius and long radius, respectively. On Day 27, all the mice were sacrificed, and the major organs examined by a pathologist.

[6] = system: MDA-MB-231 human breast cancer xenografts; assay: (ER−) MDA-MB-231 breast cancer xenografts in nude mice; type: in vivo, female Balb/c nude mice; details: 10, 30, and 100 mg/kg daily oral gavage, MDA-MB-231 xenograft
Method: As a further test of in vivo efficacy against estrogen-independent breast cancer, the novel compound 74 was administered to nude mice that had been implanted with (ER^−) MDA-MB-231 human breast cancer xenografts. To start, female Balb/c nude mice were implanted subcutaneously (s.c.) with MDA-MB-231 cells, using an inoculum of 5×10^6 cells in a medium-Matrigel mixture (1:1, v/v). When the mean tumor volume reached approximately 70 mm^3, compound was administered daily at three dose levels (10, 30, and 100 mg/kg) via oral gavage. The methods used in the study were essentially the similar to those described in Example 29 herein.

[7] = system: SKOV-3 human ovarian cancer xenografts; assay: SKOV-3 human ovarian cancer xenografts in nude mice; type: in vivo, female Balb/c nude mice; details: 30 mg/kg orally daily from Day 0, SKOV-3 xenograft
Method: To start, female Balb/c nude mice were implanted subcutaneously (s.c.) with SKOV-3 cells in the flanks, using an inoculum of 5×10^6 cells in a medium-Matrigel mixture (1:1, v/v), and compound 74 (30 mg/kg) was orally administered daily via gavage from Day 0. Tumor volume and body weight were measured twice weekly.

LNCaP = assay: Growth inhibition assay (MTT), LNCaP prostate cancer cells; type: cell-based; details: Day 7, MTT
Method: (§3) Assays were conducted on compound 46 (SR13654) to determine its growth inhibitory effect on three prostate cancer cell lines, LNCaP, DU-145 and PC-3. The methods were described briefly herein. LNCaP and PC-3 cells will be maintained in […] medium, and DU-145 cells in Eaglets minimal essential medium (MEM) medium supplemented with nonessential amino acids, 2 mM glutamine and 1 mM pyruvate. All media will contain 10% fetal bovine serum (FCS). To screen compounds for their effect on cell proliferation, cells are seeded in 96-well plates at 2000 cells/well in 200 μL of medium. After cells are allowed to attach for 24 h, test compound is added to each well in 10 μL aliquots and control wells receive vehicle only. Medium and test solutions are replaced every other day. On Day 7, viable cells are measured with the MTT assay, using the protocol provided by the manufacturer (Promega, Madison, Wis.).

DU-145 = assay: Growth inhibition assay (MTT), DU-145 prostate cancer cells; type: cell-based; details: Day 7, MTT
Method: as §3

PC-3 = assay: Growth inhibition assay (MTT), PC-3 prostate cancer cells; type: cell-based; details: Day 7, MTT
Method: as §3

SMILES | inhibition at 1 µM (MCF-7 (ER+); Homo sapiens) | IC50 (MCF-7 (ER+); Homo sapiens, MCF7, 168 h) | inhibition at 10 µM (MDA-MB-231 (ER−); Homo sapiens, MDA-MB-231) | IC50 (MDA-MB-231 (ER−); Homo sapiens, MDA-MB-231) | IC50 ([1]; Tamoxifen-resistant MCF7) | Ishikawa Assay Estrogenic Activity at 10 μM [2] | Ishikawa Assay Anti-Estrogenic Activity at 10 μM [2] | MCF-7 (ER+) % Growth Inhibition at 1 μM (MCF-7 (ER+)) | IC50 (MCF-7 (ER+)) | MDA-MB-231 (ER−) % Growth Inhibition at 10 μM (MDA-MB-231 (ER−)) | IC50 (MDA-MB-231 (ER−)) | IC50 [1] | also measured
CCOC(=O)c1ccc2[nH]c3c(OC)c4[nH]c5ccc(C(=O)OCC)cc5c4cc3c2c1 [Compound 74, 2,10-Dicarbethoxy-6-methoxy-5,7-dihydro-indolo[2,3-b]carbazole] | 100% | 200 nM | 69% | 7800 nM | 930 nM | 0 | 80% | – | – | – | – | – | IC50 (NIH-OVCAR-3): 5100 nM; IC50 (SKOV-3): 4000 nM; reduction in the invasive capacity of MDA-MB-231 cells [3]: 90%; inhibition at 5 µM [4]: 22%; body weights of the treated mice [5]: unaffected; tumor volume versus control mice ([5]; FIG. 1): less than half of those in the control mice; body weights of the treated mice [6]: unaffected; tumor volume versus control mice ([6]; FIG. 2): less than half of those in the control mice; body weights of the treated mice [7]: unaffected; tumor volume versus control mice ([7]; FIG. 3): significantly less than those in the control mice
CCOC(=O)Oc1c2[nH]c3ccc(C(=O)OCC)cc3c2cc2c1[nH]c1ccc(C(=O)OCC)cc12 [Compound 63, 2,10-Dicarbethoxy-6-ethoxycarbonyloxy-5,7-dihydro-indolo[2,3-b]carbazole] | 66% | 1400 nM | 94% | 2000 nM | 3000 nM | 0 | 100% | – | – | – | – | – | –
c1ccc2c(Cc3c[nH]c4ccccc34)c[nH]c2c1 [DIM, 3,3′-diindolylmethane, reference compound] | – | – | – | – | – | – | – | 3% | 5500 nM | 20% | 31000 nM | > 10000 nM | –
CCOC(=O)Oc1c2[nH]c3ccccc3c2cc2c1[nH]c1ccccc12 [Compound 58, 6-Ethoxycarbonyloxy-5,7-dihydro-indolo[2,3-b]carbazole] | 100% | 18 nM | 97% | 2100 nM | 56 nM | 0 | 100% | – | – | – | – | – | –
c1ccc2c(Cc3[nH]c4ccccc4c3Cc3c[nH]c4ccccc34)c[nH]c2c1 [LT, 2-(indol-3-ylmethyl) 3,3′-diindolyl-methane, reference compound] | – | – | – | – | – | 0 | 100% | 19% | 1800 nM | 34% | 13000 nM | 600 nM | –
CCOC(=O)c1ccc2[nH]c(Cc3[nH]c4ccc(C(=O)OCC)cc4c3C)c(C)c2c1 [Compound 46, 5,5′-Dicarbethoxy-3,3′-dimethyl-2,2′-diindolylmethane] | – | – | – | – | – | 0 | 94% | 100% | 31 nM | 81% | 6900 nM | 460 nM | IC50 (LNCaP): 4700 nM; IC50 (DU-145): 480 nM; IC50 (PC-3): 200 nM
